Laboratory results: patent US7189351B2, “D-tagatose as an anti-biofilm agent” (priority 2001, dated 2007)

Legend:
[1] = test system: Streptococcus morbillorum PK509/Prevotella loescheii PK1295; experiment: reversal of coaggregation, visual score; assay type: cell-based; design: key to coaggregation score without sugar: *: Coaggregations were reversed by both D-galactose and D-tagatose; settings: pair PK509/PK1295; for coaggregation score without sugar: coaggregation score 2 without sugar; for coaggregation score: water score 2, scale 0 no visible to 4 maximum coaggregation
Experimental: (§1) Fifteen oral isolates, including both early colonizers (Streptococcus and Actinomyces) and late colonizers (Fusobacterium, Porphyromonas, Prevotella, Veillonella, Capnocytophaga, and Actinobacillus), were tested for their ability to coaggregate with each other, followed by testing for the reversal of coaggregation by the addition of D-tagatose. Bacterial strains used were of human gingival crevice origin. The coaggregation was examined visually by a scoring system ranging from 0 for no visible coaggregation to 4 for maximum coaggregation [Cisar J. O., Kolenbrander P. E., and McIntire F. C., “Specificity of coaggregation reactions between human oral streptococci and strains of Actinomyces viscosus or Actinomyces naeslundii”, Infect. Immun., 24:742–752. 1979]. D-Tagatose, at a concentration of less than 750 mM, completely reversed the coaggregation of 17 (60%) of 28 strong coaggregating pairs (with a coaggregation score of 2 or higher) tested. […] These D-tagatose sensitive coaggregations were D-galactose reversible as well.
(§2) Pairs of various species of oral bacteria were tested for coaggregation, and for reversal of coaggregation when D-tagatose or D-galactose was administered.

[2] = test system: Streptococcus morbillorum PK509/Streptococcus oralis C104; experiment: reversal of coaggregation, visual score; assay type: cell-based; design: key to coaggregation score without sugar: *: Coaggregations were reversed by both D-galactose and D-tagatose; settings: for coaggregation score without sugar: pair Cl04/PK509, coaggregation score 3 without sugar; for coaggregation score: pair PK509/C104, water score 3, scale 0 no visible to 4 maximum coaggregation
Experimental: as §1, §2

[3] = test system: Streptococcus morbillorum PK509/Veillonella atypica PK1910; experiment: reversal of coaggregation, visual score; assay type: cell-based; design: key to coaggregation score without sugar: *: Coaggregations were reversed by both D-galactose and D-tagatose; settings: pair PK509/PK1910; for coaggregation score without sugar: coaggregation score 2 without sugar; for coaggregation score: water score 2, scale 0 no visible to 4 maximum coaggregation
Experimental: as §1, §2

[4] = test system: Veillonella atypica PK1910/Streptococcus oralis C104; experiment: reversal of coaggregation, visual score; assay type: cell-based; design: key to coaggregation score without sugar: *: Coaggregations were reversed by both D-galactose and D-tagatose; settings: for coaggregation score without sugar: pair Cl04/PK1910, coaggregation score 3 without sugar; for coaggregation score: pair PK1910/C104, water score 3, scale 0 no visible to 4 maximum coaggregation
Experimental: as §1, §2

[5] = test system: Prevotella loescheii PK1295/Streptococcus mitis J22; experiment: reversal of coaggregation, visual score; assay type: cell-based; design: key to coaggregation score without sugar: *: Coaggregations were reversed by both D-galactose and D-tagatose; settings: for coaggregation score without sugar: pair J22/PK1295, coaggregation score 3 without sugar; for coaggregation score: pair PK1295/J22, water score 4, scale 0 no visible to 4 maximum coaggregation
Experimental: as §1, §2

[6] = test system: Streptococcus morbillorum PK509/Streptococcus oralis SO34; experiment: reversal of coaggregation, visual score; assay type: cell-based; design: key to coaggregation score without sugar: *: Coaggregations were reversed by both D-galactose and D-tagatose; settings: for coaggregation score: pair PK509/SO34, water score 2, scale 0 no visible to 4 maximum coaggregation; for coaggregation score without sugar: pair SO34/PK509, coaggregation score 2 without sugar
Experimental: as §1, §2

[7] = test system: Actinomyces naeslundii PK29/Streptococcus oralis C104; experiment: reversal of coaggregation, visual score; assay type: cell-based; design: key to coaggregation score without sugar: *: Coaggregations were reversed by both D-galactose and D-tagatose; settings: for coaggregation score without sugar: pair Cl04/PK29, coaggregation score 4 without sugar; for coaggregation score: pair PK29/C104, water score 4, scale 0 no visible to 4 maximum coaggregation
Experimental: as §1, §2

[8] = test system: Actinomyces naeslundii PK29/Streptococcus oralis SO34; experiment: reversal of coaggregation, visual score; assay type: cell-based; design: key to coaggregation score without sugar: *: Coaggregations were reversed by both D-galactose and D-tagatose; settings: for coaggregation score: pair PK29/SO34, water score 4, scale 0 no visible to 4 maximum coaggregation; for coaggregation score without sugar: pair SO34/PK29, coaggregation score 4 without sugar
Experimental: as §1, §2

[9] = test system: Fusobacterium nucleatum PK1594/Porphyromonas gingivalis PK1924; experiment: reversal of coaggregation, visual score; assay type: cell-based; design: key to coaggregation score without sugar: *: Coaggregations were reversed by both D-galactose and D-tagatose; settings: pair PK1594/PK1924; for coaggregation score without sugar: coaggregation score 4 without sugar; for coaggregation score: water score 4, scale 0 no visible to 4 maximum coaggregation
Experimental: as §1, §2

[10] = test system: Veillonella atypica PK1910/Streptococcus oralis SO34; experiment: reversal of coaggregation, visual score; assay type: cell-based; design: key to coaggregation score without sugar: *: Coaggregations were reversed by both D-galactose and D-tagatose; settings: for coaggregation score: pair PK1910/SO34, water score 3, scale 0 no visible to 4 maximum coaggregation; for coaggregation score without sugar: pair SO34/PK1910, coaggregation score 3 without sugar
Experimental: as §1, §2

[11] = test system: Fusobacterium nucleatum PK1594/Actinobacillus actinomycetemcomitans JP2; experiment: reversal of coaggregation, visual score; assay type: cell-based; design: key to coaggregation score without sugar: *: Coaggregations were reversed by both D-galactose and D-tagatose; settings: pair PK1594/JP2; for coaggregation score without sugar: coaggregation score 3 without sugar; for coaggregation score: water score 3, scale 0 no visible to 4 maximum coaggregation
Experimental: as §1, §2

[12] = test system: Fusobacterium nucleatum PK1594/Veillonella atypica PK1910; experiment: reversal of coaggregation, visual score; assay type: cell-based; design: key to coaggregation score without sugar: *: Coaggregations were reversed by both D-galactose and D-tagatose; settings: pair PK1594/PK1910; for coaggregation score without sugar: coaggregation score 3 without sugar; for coaggregation score: water score 3, scale 0 no visible to 4 maximum coaggregation
Experimental: as §1, §2

[13] = test system: Actinomyces naeslundii PK947/Streptococcus mitis J22; experiment: reversal of coaggregation, visual score; assay type: cell-based; design: key to reversal of coaggregation: *: Coaggregations were reversed by both D-galactose and D-tagatose; settings: for reversal of coaggregation: pair J22/PK947, coaggregation score 2 without sugar; for coaggregation score: pair PK947/J22, water score 2, scale 0 no visible to 4 maximum coaggregation
Experimental: as §1, §2

[14] = test system: Actinomyces naeslundii PK947/Streptococcus oralis SO34; experiment: reversal of coaggregation, visual score; assay type: cell-based; design: key to reversal of coaggregation: *: Coaggregations were reversed by both D-galactose and D-tagatose; settings: for coaggregation score: pair PK947/SO34, water score 3, scale 0 no visible to 4 maximum coaggregation; for reversal of coaggregation: pair SO34/PK947, coaggregation score 3 without sugar
Experimental: as §1, §2

[15] = test system: Actinomyces naeslundii PK947/Streptococcus oralis C104; experiment: reversal of coaggregation, visual score; assay type: cell-based; design: key to reversal of coaggregation: *: Coaggregations were reversed by both D-galactose and D-tagatose; settings: for reversal of coaggregation: pair Cl04/PK947, coaggregation score 2 without sugar; for coaggregation score: pair PK947/C104, water score 2, scale 0 no visible to 4 maximum coaggregation
Experimental: as §1, §2

[16] = test system: Actinomyces naeslundii PK29/Streptococcus morbillorum PK509; experiment: reversal of coaggregation, visual score; assay type: cell-based; design: key to reversal of coaggregation: *: Coaggregations were reversed by both D-galactose and D-tagatose; settings: for coaggregation score: pair PK29/PK509, water score 2, scale 0 no visible to 4 maximum coaggregation; for reversal of coaggregation: pair PK509/PK29, coaggregation score 2 without sugar
Experimental: as §1, §2

[17] = test system: Actinomyces naeslundii PK29/Streptococcus mitis J22; experiment: reversal of coaggregation, visual score; assay type: cell-based; design: key to reversal of coaggregation: *: Coaggregations were reversed by both D-galactose and D-tagatose; settings: for reversal of coaggregation: pair J22/PK29, coaggregation score 4 without sugar; for coaggregation score: pair PK29/J22, water score 4, scale 0 no visible to 4 maximum coaggregation
Experimental: as §1, §2

[18] = test system: coaggregating pairs of oral isolates (early and late colonizers); experiment: reversal of coaggregation among fifteen oral isolates (overall); assay type: cell-based, bacterial strains of human gingival crevice origin
Experimental: as §1, §2

Structure (SMILES): O=C[C@H](O)[C@@H](O)[C@@H](O)[C@H](O)CO [D-Galactose]
- coaggregation score without sugar [1]: 2*
- coaggregation score ([1]; sugar 143 mM): 0
- coaggregation score without sugar [2]: 3*
- coaggregation score ([2]; sugar 143 mM): 0
- coaggregation score without sugar [3]: 2*
- coaggregation score ([3]; sugar 143 mM): 0
- coaggregation score without sugar [4]: 3*
- coaggregation score ([4]; sugar 143 mM): 0
- coaggregation score without sugar [5]: 3*
- coaggregation score ([5]; sugar 143 mM): 0
- coaggregation score ([6]; sugar 143 mM): 0
- coaggregation score without sugar [6]: 2*
- coaggregation score without sugar [7]: 4*
- coaggregation score ([7]; sugar 143 mM): 1
- coaggregation score ([8]; sugar 143 mM): 1
- coaggregation score without sugar [8]: 4*
- coaggregation score without sugar [9]: 4*
- coaggregation score ([9]; sugar 143 mM): 0
- coaggregation score ([10]; sugar 143 mM): 1
- coaggregation score without sugar [10]: 3*
- coaggregation score without sugar [11]: 3*
- coaggregation score ([11]; sugar 143 mM): 1
- coaggregation score without sugar [12]: 3*
- coaggregation score ([12]; sugar 143 mM): 0
- reversal of coaggregation [13]: 2*
- coaggregation score ([13]; sugar 143 mM): 0
- coaggregation score ([14]; sugar 143 mM): 0
- reversal of coaggregation [14]: 3*
- reversal of coaggregation [15]: 2*
- coaggregation score ([15]; sugar 143 mM): 0
- coaggregation score ([16]; sugar 143 mM): 0
- reversal of coaggregation [16]: 2*
- reversal of coaggregation [17]: 4*
- coaggregation score ([17]; sugar 143 mM): 1
- reversibility of the D-tagatose sensitive coaggregations [18]: reversible

Structure (SMILES): O=C(CO)[C@@H](O)[C@@H](O)[C@H](O)CO [D-Tagatose]
- coaggregation score without sugar [1]: 2*
- coaggregation score ([1]; sugar 600 mM): 0
- coaggregation score without sugar [2]: 3*
- coaggregation score ([2]; sugar 750 mM): 1
- coaggregation score without sugar [3]: 2*
- coaggregation score ([3]; sugar 400 mM): 0
- coaggregation score without sugar [4]: 3*
- coaggregation score ([4]; sugar 200 mM): 1
- coaggregation score without sugar [5]: 3*
- coaggregation score ([5]; sugar 750 mM): 2
- coaggregation score ([6]; sugar 400 mM): 1
- coaggregation score without sugar [6]: 2*
- coaggregation score without sugar [7]: 4*
- coaggregation score ([7]; sugar 750 mM): 1
- coaggregation score ([8]; sugar 750 mM): 1
- coaggregation score without sugar [8]: 4*
- coaggregation score without sugar [9]: 4*
- coaggregation score ([9]; sugar 400 mM): 0
- coaggregation score ([10]; sugar 200 mM): 1
- coaggregation score without sugar [10]: 3*
- coaggregation score without sugar [11]: 3*
- coaggregation score ([11]; sugar 600 mM): 0
- coaggregation score without sugar [12]: 3*
- coaggregation score ([12]; sugar 200 mM): 0
- reversal of coaggregation [13]: 2*
- coaggregation score ([13]; sugar 200 mM): 0
- coaggregation score ([14]; sugar 200 mM): 0
- reversal of coaggregation [14]: 3*
- reversal of coaggregation [15]: 2*
- coaggregation score ([15]; sugar 200 mM): 0
- coaggregation score ([16]; sugar 200 mM): 0
- reversal of coaggregation [16]: 2*
- reversal of coaggregation [17]: 4*
- coaggregation score ([17]; sugar 750 mM): 1
- plaque reversibility, comparison of Table 2 ([18]; D-tagatose and D-sorbitol at somewhat higher concentrations than D-galactose): virtually equal to that of D-galactose
- share of strong coaggregating pairs whose coaggregation was completely reversed ([18]; concentration of less than 750 mM, 28 strong coaggregating pairs tested): 60%
- number of strong coaggregating pairs whose coaggregation was completely reversed ([18]; concentration of less than 750 mM, of 28 strong coaggregating pairs (score of 2 or higher) tested): 17
- colonizers acted on ([18]; late colonizers were gram-negative anaerobes): acted on both early colonizers and late colonizers
